{"source": "patent US12259384B2", "about": "“Membrane and droplet-interface bilayer systems and methods” (University of Massachusetts, priority 2015, dated 2025)", "molecular_target": "α-hemolysin (Staphylococcus aureus, UniProt P09616)", "sequence (P09616 27-319 limits assumed)": "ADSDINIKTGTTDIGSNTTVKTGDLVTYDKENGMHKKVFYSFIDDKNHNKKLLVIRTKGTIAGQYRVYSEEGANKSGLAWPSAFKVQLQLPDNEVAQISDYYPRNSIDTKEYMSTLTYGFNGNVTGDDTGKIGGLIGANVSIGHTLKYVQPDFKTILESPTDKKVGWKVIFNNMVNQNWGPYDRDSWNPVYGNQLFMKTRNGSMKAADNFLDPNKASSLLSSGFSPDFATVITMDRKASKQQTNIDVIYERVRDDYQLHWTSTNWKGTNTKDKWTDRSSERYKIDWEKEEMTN", "format": "biochemical", "data": [{"smiles": "OC[C@H]1O[C@@H]2O[C@H]3[C@H](O)[C@@H](O)[C@@H](O[C@H]4[C@H](O)[C@@H](O)[C@@H](O[C@H]5[C@H](O)[C@@H](O)[C@@H](O[C@H]6[C@H](O)[C@@H](O)[C@@H](O[C@H]7[C@H](O)[C@@H](O)[C@@H](O[C@H]8[C@H](O)[C@@H](O)[C@@H](O[C@H]9[C@H](O)[C@@H](O)[C@@H](O[C@H]1[C@H](O)[C@H]2O)O[C@@H]9CO)O[C@@H]8CO)O[C@@H]7CO)O[C@@H]6CO)O[C@@H]5CO)O[C@@H]4CO)O[C@@H]3CO", "note": "[cyclodextrin, γ-Cyclodextrin]", "values": [{"measurement": "magnitude and lifetime of the reversible blockades of the α-hemolysin pore", "result": "consistent with previous reports"}, {"measurement": "reversible blockages of the α-hemolysin pores", "result": "reversible blockages of the pores by cyclodextrin are observed"}]}]}
